The test deals with motor proteins. Kind of test: Frequency distribution of the fluctuation value χ of cargo transport, measured with the force measurement device after adding Ciliobrevin to cells. The settings on record: melanocytes; for number of clusters into which the frequency distribution of the fluctuation value χ is classified: four clusters without Ciliobrevin. In kind it is cell-based. The method, then:
The dish after stain was placed on a heating plate (CU-201, Live Cell Instrument), and the stained melanin vesicles in melanocytes were observed under a dark-field microscope (IX71, Olympus) while the temperature was maintained at 37° C. A video was captured using an EMCCD camera (LucaS (Andor)) with a 100× objective lens (UPlanFL 100x/1.3, Plympus) at 98 frames per second. Time course data of the position of the center of gravity of melanin vesicles was calculated from the video using ImageJ (Rasband, 1997).
FIG. 15A, FIG. 15B and FIG. 15C are diagrams showing specific results showing that the fact that the frequency distribution of the fluctuation value χ changes according to addition of Ciliobrevin which is a reagent that inhibits a function of motor proteins into melanocytes is clear from measurement of χ using the force measurement device 1 of the embodiment.

For the substance Ciliobrevin, the “change in the number of clusters of the fluctuation value χ with the amount of Ciliobrevin added” value (comparison of 0, 20 and 40 μM (FIG. 15A-15C)) is reported as “number of clusters decreases as the amount of Ciliobrevin added increases”. Moreover, the “number of clusters into which the frequency distribution of the fluctuation value χ is classified” value (concentration of Ciliobrevin in the cell culture medium 20 μM (FIG. 15B)) was “two clusters” and the “number of clusters into which the frequency distribution of the fluctuation value χ is classified” value (concentration of Ciliobrevin in the cell culture medium 40 μM (FIG. 15C)) is “one cluster”.

The values above are taken from patent US11448563B2, “Force measurement method, force measurement device, force measurement system, force measurement program, and recording medium” (Tohoku University, priority 2017, dated 2022).
